The record followed here is US20180370912A1, “COMPOUNDS AND METHODS FOR TREATING DISEASES MEDIATED BY PROTEIN DISULFIDE ISOMERASE” (Beth Israel Deaconess Medical Center, Inc., priority 2017, published 2018).

One test deals with T1, ERp5 (Homo sapiens, UniProt Q15084).
T1 construct: recombinant His-tagged full-length ERp5, ERp72 and PDI domain fragments; His; made in house; host or cells: Escherichia coli Origami B (DE3), pET-15b
T1 sequence (Q15084 20-440): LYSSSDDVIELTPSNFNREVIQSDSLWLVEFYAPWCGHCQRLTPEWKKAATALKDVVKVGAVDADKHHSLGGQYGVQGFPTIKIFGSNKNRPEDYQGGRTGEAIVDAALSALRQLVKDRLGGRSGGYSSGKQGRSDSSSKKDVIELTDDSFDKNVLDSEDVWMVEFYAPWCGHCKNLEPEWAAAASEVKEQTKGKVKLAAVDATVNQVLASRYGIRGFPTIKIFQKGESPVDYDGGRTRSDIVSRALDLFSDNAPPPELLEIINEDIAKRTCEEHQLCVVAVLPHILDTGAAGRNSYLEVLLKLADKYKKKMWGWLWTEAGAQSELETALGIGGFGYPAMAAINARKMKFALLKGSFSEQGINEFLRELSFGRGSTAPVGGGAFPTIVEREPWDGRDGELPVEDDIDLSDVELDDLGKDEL
Nature of the test: Insulin reductase assay, thiol isomerase selectivity. It is filed as biochemical. The note with it: 10-fold IC50, FIG. 2. On the procedure:
(§1) The thiol isomerase-catalyzed reduction of insulin was assayed by measuring the increase in turbidity as detected at an optical density (OD) of 650 nm using a Spectramax M3 (Molecular Devices, Sunnyvale, Calif.). The validation assay consisted of 175 nM of PDI in a solution containing 100 mM potassium phosphate (pH 7.4) containing 0.2 mM bovine insulin, 2 mM EDTA, and 0.3 mM DTT (all purchased from Sigma Aldrich, St. Louis, Mo.), inhibitors were used at the concentrations indicated. The reaction was performed at 25° C. for one hour and thirty minutes. For assays of thiol isomerase selectivity, 11 nM PDI, ERp57 or Thioredoxin, or 33 nM ERpS were assayed in similar buffer conditions as described above and inhibitors were used at the indicated concentration. The reaction was performed at 37° C. for forty-five minutes. For assays of isolated domains studies, 400 nM protein was used, except for a, a′ and ab, in which 800 nM protein was used. The assay was performed in similar buffer conditions as described above. Bepristat 2a and N-(2,4-Dimethoxyphenyl)-N-(1-oxo-2-propyn-1-yl)-2-(2-thienyl)glycyl-glycine ethyl ester (PACMA-31) were used at a final concentration of 15 μM in these studies.

The next test deals with T2, thioredoxin (Homo sapiens, UniProt P10599).
T2 sequence (P10599 1-105): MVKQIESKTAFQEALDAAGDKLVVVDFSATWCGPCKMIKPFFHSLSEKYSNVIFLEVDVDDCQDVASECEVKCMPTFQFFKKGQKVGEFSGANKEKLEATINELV
The test is described as above. The note with it: 10-fold IC50, FIG. 2. It is filed as biochemical. On the procedure:
as §1

Another test deals with T3, human wild-type PDI (Homo sapiens, UniProt P07237).
T3 construct: FLAG; made in house; host or cells: Escherichia coli Origami B (DE3), pET-15b
Kind of test: Redox potential determination by differential cysteine alkylation and mass spectrometry. On the procedure:
The redox potentials of the a (Cys53-Cys56) and a′ (Cys397-Cys400) active-site dithiols/disulfides of human wild-type PDI in the absence or presence of bepristat 2b were determined by differential cysteine alkylation and mass spectrometry. Recombinant PDI (5 μM) was incubated in the absence or presence of bepristat 2b (50 μM) in argon-flushed phosphate-buffered saline containing 0.1 mM EDTA, 0.2 mM oxidized glutathione (GSSG, Sigma) and various concentrations of reduced glutathione (GSH, Sigma) for 18 h at room temperature. Microcentrifuge tubes were flushed with argon prior to sealing to prevent oxidation by ambient air during the incubation period. […]
The fraction of reduced active-site disulfide bond was measured from the relative ion abundance of peptides containing ^12C-IPA and ^13C-IPA. […] The area was calculated using the automated peak detection function built into the software. […] The results were expressed as the ratio of reduced to oxidized protein and fitted to equation 1: […]
where R is the fraction of reduced protein at equilibrium, B is the baseline fraction of the cysteine in the population that is in the reduced state and Keq is the equilibrium constant. The standard redox potential (E^0′) of the PDI active-site disulfides were calculated using the Nernst equation (equation 2): […]

For test [1], the target named is T4, PDI fragments abb′ and b′xa′ (Homo sapiens, UniProt P07237).
T4 construct: abb′ (residues 1-331), or b′xa′ (residues 219-462); His; made in house; host or cells: Escherichia coli Origami B (DE3), pET-15b
Nature of the test: Di-eosin-GSSG reductase assay of PDI fragments. It is filed as biochemical. The note with it: 30 μM, FIG. 5a. Here is the method:
The probe di-eosin glutathione disulfide, di-eosin-GSSG, was prepared as previously described in Raturi, A., Vacratsis, P. O., Seslija, D., Lee, L. & Mutus, B., Biochem J 391, 351-357 (2005). Reductase activity of purified thiol isomerases and PDI domains was monitored in a 96-well fluorescence plate format. PDI, AGHA-PDI, ERpS, ERp57, ERp72 and PDI domains were assayed at 50 nM in the presence or absence of the indicated small molecules, peptides or cathepsin G. The assay included 100 mM potassium phosphate (pH 7.4) containing 2 mM EDTA, 5 μM DTT and 150 nM of the di-eosin GSSG probe. The increase in fluorescence was determined for 20 minutes by excitation at 520 nm and emission at 550 nm in a Synergy Biotek 4. The reduction of 150 nM di-eosin-GSSG by 5 μM DTT in the presence or absence of mentioned small molecules, peptides or proteins served as a negative control.

T4 sequence (P07237 236-479): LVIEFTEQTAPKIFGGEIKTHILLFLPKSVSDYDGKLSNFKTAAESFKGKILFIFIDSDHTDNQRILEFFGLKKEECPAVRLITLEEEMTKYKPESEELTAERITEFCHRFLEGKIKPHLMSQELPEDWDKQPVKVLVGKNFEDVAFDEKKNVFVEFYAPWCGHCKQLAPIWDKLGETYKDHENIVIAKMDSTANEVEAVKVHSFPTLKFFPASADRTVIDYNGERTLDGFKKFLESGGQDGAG
T3 sequence (P07237 18-508): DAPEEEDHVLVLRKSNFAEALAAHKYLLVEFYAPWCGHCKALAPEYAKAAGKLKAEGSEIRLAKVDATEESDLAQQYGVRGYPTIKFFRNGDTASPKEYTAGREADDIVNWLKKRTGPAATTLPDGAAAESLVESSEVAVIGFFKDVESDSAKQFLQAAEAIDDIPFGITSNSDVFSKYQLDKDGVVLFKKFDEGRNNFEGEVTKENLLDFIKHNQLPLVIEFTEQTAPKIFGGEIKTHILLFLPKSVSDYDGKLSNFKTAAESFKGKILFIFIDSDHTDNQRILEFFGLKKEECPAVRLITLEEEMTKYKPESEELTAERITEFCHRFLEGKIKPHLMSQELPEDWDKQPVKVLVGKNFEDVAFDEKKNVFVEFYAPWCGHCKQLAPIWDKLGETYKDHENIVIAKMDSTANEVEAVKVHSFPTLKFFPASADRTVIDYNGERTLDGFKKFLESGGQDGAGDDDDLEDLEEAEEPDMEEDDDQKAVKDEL

On to `C#CC(=O)N(c1ccc(OC)cc1OC)C(C(=O)NCC(=O)OCC)c1cccs1` (stereo not shown) [PACMA-31, N-(2,4-Dimethoxyphenyl)-N-(1-oxo-2-propyn-1-yl)-2-(2-thienyl)glycyl-glycine ethyl ester, reference compound], for which the “inhibition of reductase activity of ERp5” value against ERp5 is given as “demonstrated inhibitory activity”. Also, the “inhibition of reductase activity of thioredoxin” value against thioredoxin is on record as “demonstrated inhibitory activity”.

Consider `CCOC(=O)c1c(CNCCN(CC)CC)n(-c2ccccc2)c2cc(Br)c(O)cc12` [bepristat 2a], for which, at human wild-type PDI, the “active site disulfide bond formation under equilibrium conditions” value is given as “impairs active site disulfide bond formation”. In addition, the “di-eosin-GSSG cleavage by b′xa′ fragment” value in test [1] is recorded as “significantly augmented the catalytic activity”.
